Measured values taken from US20240018105A1, “TROPOLONE DERIVATIVES AND TAUTOMERS THEREOF FOR IRON REGULATION IN ANIMALS” (Kinesid Therapeutics, Inc., priority 2019, published 2024).

What was measured:
[1] = Ligand facilitated Fe(III) efflux from liposomes; conditions: 10 uM ligand concentration; Table 1
Description: Assay 1: Ligand Facilitated Fe(III) Efflux from Liposomes Preparation of POPC (1-palmitoyl-2-oleoyl-sn-glycero-3-phosphocholine): Cholesterol Liposomes:
A 1M buffer solution of MES and Tris was prepared by dissolving 121.14 grams of Tris base and 213.25 grams of MES hydrate in 500 mL of MilliQ water and adjusted to pH7.0 using an […] HCl solution before bringing the total volume of the solution to 1 L. A 500 mM solution of FeCl3 was prepared by dissolving 0.811 grams of anhydrous FeCl3 in 10 mL of a 0.1M H2SO4 aqueous solution. Inside buffer is prepared in a 50 mL falcon tube, which was added with 25 mL of MilliQ water, 1.61 g of sodium citrate, 1.5 mL of the above FeCl3 solution, and 2.5 mL of the 1M MES/Tris HCl buffer (pH=7.0), and finally additional MilliQ H2O to bring to a 50 mL final volume.
Lipid solution is prepared by dissolving 206.9 mg of POPC (1-palmitoyl-2-oleoyl-sn-glycero-3-phosphocholine) and 8.6 mg of cholesterol in 10 mL of ethanol.
The lipids solution and the inside buffer solution are independently loaded into 10 mL luer lock syringes for loading into a virgin cartridge on a Precision Nanosystems NanoAssembler to prepare unilamaller liposomes with the following parameters: 7.5 mL total volume, 1.5:1 mixing ratio of inside buffer:lipids solution, 8 mL/min flow rate, ambient temperature, 0.35 mL start waste, and 0.05 mL of end waste. 7.5 mL of liposomes is harvested for purification on a 6-inch long, 1-inch diameter Sephadex G-50 column wetted in 600 mM sodium ascorbate and 50 mM MES/Tris HCl pH 7.0 buffer. This buffer also serves as the column running buffer. The crude liposome solution is carefully loaded with minimal volume of running buffer above the top of the Sphadex, allowed to enter the matrix, and the column is run with the continued addition of running buffer. The eluting liposomes, observed as a milky and turbid solution, are collected until free iron begins to elute (observed as a deep purple color) and the fractions are pooled for phosphorus quantitation.
Phosphorus content of eluted liposomes was determined by the process outlined below. 10 uL of liposome elution and a running buffer blank are added to a 5 mL glass vial containing 450 uL of a 8.9 M aqueous H2SO4 solution, the mixture is heated to 225° C. for 25 minutes in an aluminum heat block to hydrolyze POPC and cooled for 5 minutes. 200 ul of a 30% hydrogen peroxide aqueous solution is added to each vial and heated to 225° C. for 25 minutes. After cooling, the phosphorus content was determined using an Abcam Phosphate Assay kit, with buffer subtracted phosphorus levels determined against a standard curve of phosphate included in the kit. Liposomes were diluted to 1 mM phosphate in Running Buffer for use in assays after accounting for dilutions made during phospholipid digestion.
Determination of the rate at which a small molecule ligand liberates (transport) Ferric iron from liposomes is performed in clear bottom black 384-well plates on a Spectramax i3x set to read the absorbance at 562 nm in the kinetic mode every 60 seconds for 120 minutes. 1 uL of serially diluted DMSO stock solution of a small molecule ligand is added to wells in triplicate to give the final concentrations of 40, 20, 10, 5, 2.5, and 1.25 uM of the ligand at 80 μL final volume, followed by addition of 1 μL of 100 mM Ferrozine in water to give a final concentration of 1 mM ferrozine. 78 uL of liposomes diluted to 1 mM phosphorus in running buffer is added to wells as quickly as possible (using a digital repeater mulchannel pipette) with the kinetic read initiated as rapidly as possible after addition of liposomes to all wells. Typically, eight compounds at six concentrations are tested in triplicate simultaneously.
Upon completion of kinetic read, the data for individual reads is fitted to a single phase association regression with the equation Y=(Y0−YMax)^(−kX)+YMax, with Y being the 562 absorbance value and X being time in minutes. […]

[2] = test system: DMT1-deficient Caco-2 cells; assay: shDMT1-Caco2 55Fe transport assay; assay type: cell-based; conditions: Caco-2
Description: Assay 2: shDMT1-Caco2 ^55Fe Transport Assay to Assess Ligand Ability in Transporting Fe (III)
Cells: DMT1-deficient Caco-2 cells (alias: “shDMT1,” or “4A” cells) were from Grillo et al. Science, 2017, and were cryopreserved in liquid nitrogen prior to use.
Reagents and supplies: ^55FeCl3 was obtained from PerkinElmer (Boston, MA). Iron(III) chloride (FeCl3) hexahydrate was obtained from Sigma. Dulbecco's Modified Eagle Medium (DMEM), fetal bovine serum (FBS), L-glutamine, MEM nonessential amino acids, penicillin-streptomycin, G418, formic acid, methanol, high-purity water, ammonium formate, dimethyl sulfoxide (DMSO) were purchased from Fisher Scientific. Propranolol, atenolol and carbutamide were obtained from Sigma-Aldrich Chemical Company (St Louis, MO). Scintillation cocktail was obtained from Research Product International Co. (Mount Prospect, IL). Stericup filter system (PES membrane, 0.22 um pore size) was purchased from Fisher Scientific. Coming item #3378 24-well transwell insert plates. Test articles: known compounds hinokitiol and deferiprone were purchased from Sigma. They are tested side by side with the small molecule ligands disclosed in this application. DMSO stocks (10 mM, which is 1,000× of the 10 μM dose level) of hinokitiol or test articles were prepared. A stock solution of 25 mM deferiprone in DMSO was prepared. The DMSO stock solutions were stored at −20° C. or below when not in use.
The growth medium was prepared according to the following table
Apical media (serum free DMEM, 10 mM MES, pH 6.5) was prepared. Apical master mix media was prepared fresh with the addition of 200 nM ^55Fe before each experiment. For the negative control propranolol and atenolol wells, 200 nM of non-radioactive iron was used.
The basolateral media was serum-free DMEM, 10 mM HEPES, 2% bovine serum albumin (BSA), pH 7.4.
For each experiment, cells were seeded into the 24-well transwell plates (0.5 mL of 50,000 cells/mL) with growth media. The basolateral companion plate was loaded with 1 mL of growth media. After 12-24 hr, both the apical and basolateral chamber were replaced with growth media. The apical media was changed 3× per week for 21-28 days, including a media change exactly 48 hr before the assay date.
On the assay day, the TEER values were measured and the average TEER values was obtained. Individual wells with TEER vaule >35% lower than the average of all wells were excluded. For the qualified wells, the apical layer (twice) and basolaterial (once) chambers were washed with PBS. The basolateral companion plate was then filled with 1 mL of basolateral media. Via addition down the side-wall of the apical well, 300 μL per well of the apical assay master mix, with the indicated dose level of test article, was added. Each dose was tested in triplicate. The plates were incubated (5% CO2 and 90% humidity at 37° C.) for the indicated timepoints. At each indicated timepoint, the basolateral supernatant was gently mixed via pipetting, and 200 μL of the basolateral supernatant was transferred to scintillation vials. To each scintillation counting vial, 5 mL of scintillation cocktail fluid was added. For each scintillation vial, the radioactivity (CPM) was determined with liquid scintillation counter LS6500. The counting time per vial was 5 min.
All raw CPM values are divided by the average value of blank DMSO solution to give a fold of change above the DMSO value. The mean and standard deviation of each compound at each concentration level and at each time point measured was calculated to give the fold change (fc) value.
For rank order compounds, the fc value of a ligand at 4 h time point is further divided by the fold change (fc) value of hinokitiol (a positive control compound) at an equimolar concentration to arrive at the FC (normalized fold of change) value. Data reported in Tables 1 and 2 is 4 hr time point FC=fc-ligand @ 3 uM/fc-hino @ 3 uM, and FC hino=1.

| SMILES | Caco2 shDMT1 transport FC @ 3 μM, 4h [2] | Liposome Fe transport kefflux at 10 10 μM [1] | Liposome Fe transport Kefflux at 10 μM [1] |
| --- | --- | --- | --- |
| COc1cc(-c2cccc(=O)c(O)c2)ccn1 [Ex.8, 2-hydroxy-4-(2-methoxypyridin-4-yl)cyclohepta-2,4,6-trien-1-one] | 0.01-0.5 | 7.5-10 |  |
| N#Cc1cncc(-c2cccc(=O)c(O)c2)c1 [Ex.4, 5-(6-hydroxy-5-oxocyclohepta-1,3,6-trien-1-yl)nicotinonitrile] | 0.01-0.5 | 0.1-5 |  |
| COc1cc(-c2cccc(=O)c(O)c2)c(F)cn1 [Ex.6, 4-(5-fluoro-2-methoxypyridin-4-yl)-2-hydroxycyclohepta-2,4,6-trien-1-one] | 0.01-0.5 | 7.5-10 |  |
| Cc1ncc(-c2ccc(O)c(=O)cc2)c(C)n1.O=C(O)C(F)(F)F [Ex.35, 5-(2,4-dimethylpyrimidin-5-yl)-2-hydroxycyclohepta-2,4,6-trien-1-one] | 0.01-0.5 | 7.5-10 |  |
| Cc1ncc(-c2ccccc(=O)c2O)cn1 [Ex.34, 2-hydroxy-3-(2-methylpyrimidin-5-yl)cyclohepta-2,4,6-trien-1-one] | 0.01-0.5 | 0.1-5 |  |
| O=c1cccc(-c2cccnc2)cc1O [Ex.11, 2-hydroxy-4-(pyridin-3-yl)cyclohepta-2,4,6-trien-1-one] | 0.01-0.5 | 0.1-5 |  |
| O=c1cccc(-c2cncnc2)cc1O [Ex.29, 2-hydroxy-4-(pyrimidin-5-yl)cyclohepta-2,4,6-trien-1-one] | 0.01-0.5 | 5-7.5 |  |
| Cc1ccc(-c2cccc(=O)c(O)c2)cn1 [Ex.18, 2-hydroxy-4-(6-methylpyridin-3-yl)cyclohepta-2,4,6-trien-1-one] | 0.01-0.5 | 0.1-5 |  |

Continued, in another order:

| Caco2 shDMT1 transport FC @ 3 μM, 4h [2] | SMILES | Liposome Fe transport kefflux at 10 10 μM [1] | Liposome Fe transport Kefflux at 10 μM [1] |
| --- | --- | --- | --- |
| 0.01-0.5 | O=c1c(O)ccccc1-c1ccncn1 [Ex.47, 2-hydroxy-7-(pyrimidin-4-yl)cyclohepta-2,4,6-trien-1-one] | 0.1-5 |  |
| 0.01-0.5 | COc1ncccc1-c1cccc(=O)c(O)c1 [Ex.54, 2-hydroxy-4-(2-methoxypyridin-3-yl)cyclohepta-2,4,6-trien-1-one] | 10-25 |  |
| 0.01-0.5 | O=c1cccc(-c2ccncc2F)cc1O [Ex.50, 4-(3-fluoropyridin-4-yl)-2-hydroxycyclohepta-2,4,6-trien-1-one] | 0.1-5 |  |
| 0.01-0.5 | Cc1ncc(-c2ccc(O)c(=O)cc2)cc1F [Ex.59, 5-(5-fluoro-6-methylpyridin-3-yl)-2-hydroxycyclohepta-2,4,6-trien-1-one] | 5-7.5 |  |
| 0.01-0.5 | COc1nccc(-c2cccc(=O)c(O)c2)n1.O=C(O)C(F)(F)F [Ex.39, 2-hydroxy-4-(2-methoxypyrimidin-4-yl)cyclohepta-2,4,6-trien-1-one] | 0.1-5 |  |
| 0.02-0.03 | Cc1c(O)c(=O)ccn1C [deferiprone, reference compound] |  | 0 |
| 0.01-0.5 | O=c1ccc(-c2cnccc2F)ccc1O [Ex.51, 5-(4-fluoropyridin-3-yl)-2-hydroxycyclohepta-2,4,6-trien-1-one] | 5-7.5 |  |
